“Also recorded” adds a separate entry of the source.
Experiments:
[1] = target: T1, human GLUT3 (Homo sapiens, UniProt P11169); test: Glucose entrance counter-flow transport in GLUT3 proteoliposomes; type: biochemical; details: 2 mM compound
T1 construct: Full length DNA was subcloned into pFastBac1 (Life Technologies) vector with a N-terminal hexahistidine tag; hexahistidine (N); made in house; host or cells: Sf21 insect cells (baculovirus, pFastBac1)
T1 sequence (P11169 1-496): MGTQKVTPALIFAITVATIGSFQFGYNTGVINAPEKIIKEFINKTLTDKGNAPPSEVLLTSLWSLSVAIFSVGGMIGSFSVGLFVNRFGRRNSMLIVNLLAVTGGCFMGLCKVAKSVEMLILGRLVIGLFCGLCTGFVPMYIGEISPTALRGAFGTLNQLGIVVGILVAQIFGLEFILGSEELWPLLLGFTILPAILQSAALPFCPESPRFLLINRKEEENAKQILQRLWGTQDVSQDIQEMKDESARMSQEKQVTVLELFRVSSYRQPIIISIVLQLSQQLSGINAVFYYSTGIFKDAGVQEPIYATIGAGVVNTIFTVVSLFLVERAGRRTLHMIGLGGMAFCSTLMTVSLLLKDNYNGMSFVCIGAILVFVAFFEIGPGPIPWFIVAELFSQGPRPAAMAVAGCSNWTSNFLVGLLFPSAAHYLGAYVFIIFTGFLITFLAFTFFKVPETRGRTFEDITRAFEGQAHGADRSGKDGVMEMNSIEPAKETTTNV
Experimental: (§1) cDNAs of GLUT1, 3, 4 and 5 were purchased from Open Biosystems (GE Healthcare). cDNAs of GLUT2 was a gift from Prof. Graeme Bell at University of Chicago. Full length DNA was subcloned into pFastBac1 (Life Technologies) vector with a N-terminal hexahistidine tag. Bacmids were generated in DH10Bac E. coli cells (Life Technologies). Baculoviruses were produced using Cellfectin II Reagent and amplified in Sf21 insect cells (Life Technologies). Cells were maintained at 26° C., and P1 (10^6 pfu/mL) was collected from infected cells after 72 hours. SF21 cells were propagated in HyClone SFX-Insect media (GE Healthcare), supplemented with 5% fetal bovine serum (Biowest), 4.8 mM glutamine, antibiotics (100 units/mL Penicillin G and 100 μg/mL streptomycin sulfate) and amphotericin B (2.5 μg/mL). […]
(§2) For the entrance counterflow transport in proteoliposomes, the assay was started by the addition of 5 μL proteoliposomes solution (OD600 nm ˜30) to 200 μL, assay solution, containing 10 μM ^14C-radiolabeled glucose (for GLUT1 wild-type or F379H mutant and GLUT2-4) or fructose (for GLUT5 wild-type or H387F mutant and GLUT2) (Moravek Biochemicals) in 100 mM KPi buffer at pH 7.5. After one minute (or different specified time points when the time-dependent counter-flow transport activity was measured), the transport was stopped with ice-chilled quench buffer [0.1 M KPi (pH 5.5) and 0.1 M lithium chloride]. […]

[2] = target: T2, human GLUT2 (Homo sapiens, UniProt P11168); test: Glucose or fructose entrance counter-flow transport in GLUT2 proteoliposomes; type: biochemical; details: 2 mM compound
T2 construct: Full length DNA was subcloned into pFastBac1 (Life Technologies) vector with a N-terminal hexahistidine tag; hexahistidine (N); made in house; host or cells: Sf21 insect cells (baculovirus, pFastBac1)
T2 sequence (P11168 1-524): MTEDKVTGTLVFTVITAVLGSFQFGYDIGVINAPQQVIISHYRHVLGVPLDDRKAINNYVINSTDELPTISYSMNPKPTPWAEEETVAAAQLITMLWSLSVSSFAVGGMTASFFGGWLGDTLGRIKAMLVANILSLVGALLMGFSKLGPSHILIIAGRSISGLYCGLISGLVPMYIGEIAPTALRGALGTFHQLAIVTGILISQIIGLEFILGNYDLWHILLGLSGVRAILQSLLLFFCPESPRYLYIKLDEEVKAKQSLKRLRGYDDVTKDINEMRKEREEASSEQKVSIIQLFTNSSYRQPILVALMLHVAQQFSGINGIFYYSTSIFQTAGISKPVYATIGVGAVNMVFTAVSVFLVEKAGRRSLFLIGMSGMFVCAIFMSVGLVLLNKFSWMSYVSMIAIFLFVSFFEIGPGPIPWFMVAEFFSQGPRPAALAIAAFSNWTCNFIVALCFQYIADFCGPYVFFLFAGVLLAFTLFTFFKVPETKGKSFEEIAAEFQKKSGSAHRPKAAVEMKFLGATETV
Experimental: as §1, §2

CS(=O)(=O)c1ccc(Nc2ccc3c(c2)OCO3)c([N+](=O)[O-])c1 [MSNBA, N-[4-(methylsulfonyl)-2-nitrophenyl]-1,3-benzodioxol-5-amine]
effect on GLUT3 glucose transport [1]: did not affect; also recorded: did not influence | effect on GLUT2 fructose transport ([2]; fructose as substrate): did not affect; also recorded: did not influence | effect on GLUT2 glucose transport ([2]; glucose as substrate): did not influence; also recorded: did not affect
